Measurements from publication PMC9157191, “The ex vivo pharmacology of HIV-1 antiretrovirals differs between macaques and humans” (iScience, 2022).
“And” between values parts separate entries of the source, which are not always exact repeats. Identical values can stand only once.

Key:
HIV-1BaL [1] = assay: microbe, parasite or virus in culture; assay type: cell-based; conditions: Human cervical explants
SIVmac32H K65RM184V [2] = assay: microbe, parasite or virus in culture; assay type: cell-based; conditions: for p27 AUC3-15: Rhesus macaque colorectal explants
SIVmac32H [3] = assay: microbe, parasite or virus in culture; assay type: cell-based; conditions: for p27 AUC3-15: Rhesus macaque vaginal explants
SIVmac32H K65R = assay type: cell-based, SIV
RT-SHIV [4] = assay: tissue or blood; assay type: cell-based; conditions: for p27 AUC3-15: Rhesus macaque colorectal explants
SIVmac32H [5] = assay: microbe, parasite or virus in culture; assay type: cell-based; conditions: for p27 AUC3-15: Rhesus macaque cervical explants
[6] = Drug concentrations in Rhesus macaque ecto-cervical tissue explants (LC-MS/MS); assay type: in vitro ADME, Rhesus macaque (Macaca mulatta); conditions: for AUC3h–15d / Cmax: Rh. macaque ecto-cervical explants, 3 h exposure; for Cmax: monkey, ecto-cervical tissue explants
[7] = Drug concentrations in human ecto-cervical tissue explants (LC-MS/MS); conditions: for AUC3h-15d / Cmax: Human ecto-cervical explants, 3 h exposure; for Cmax: human, ecto-cervical tissue explants
HIV-1YU.2 M184V = assay: microbe, parasite or virus in culture; assay type: cell-based; conditions: Human colorectal explants
HIV-1/SIV/SHIV isolates = assay type: cell-based
HIV-1YU.2 K65R = assay: microbe, parasite or virus in culture; assay type: cell-based; conditions: Human colorectal explants
SIVmac32H [8] = assay: microbe, parasite or virus in culture; assay type: cell-based; conditions: for p27 AUC3-15: Rhesus macaque colorectal explants
HIV-1BaL [9] = assay: microbe, parasite or virus in culture; assay type: cell-based; conditions: Human colorectal explants
SIVmac32H K65RM184V [10] = assay: microbe, parasite or virus in culture; assay type: cell-based; conditions: for p27 AUC3-15: Rhesus macaque cervical explants
[11] = Drug concentrations in Rhesus macaque colorectal tissue explants (LC-MS/MS); assay type: in vitro ADME, Rhesus macaque (Macaca mulatta); conditions: for AUC3h–15d / Cmax: Rh. macaque colorectal explants, 3 h exposure; for Cmax: monkey, colorectal tissue explants, read-out: Cmax
SIVmac32H M184V = assay type: cell-based, SIV
[12] = Drug concentrations in human colorectal tissue explants (LC-MS/MS); assay type: in vitro ADME; conditions: for AUC3h-15d / Cmax: Human colorectal explants, 3 h exposure; for Cmax: human, colorectal tissue explants, read-out: Cmax
HIV-1YU.2 = assay: microbe, parasite or virus in culture; assay type: cell-based; conditions: Human colorectal explants
HIV-1YU.2 K65RM184V = assay: microbe, parasite or virus in culture; assay type: cell-based; conditions: Human colorectal explants
SIVmac32H K65RM184V [13] = assay: microbe, parasite or virus in culture; assay type: cell-based; conditions: for p27 AUC3-15: Rhesus macaque vaginal explants
[14] = Drug concentrations in Rhesus macaque vaginal tissue explants (LC-MS/MS); assay type: in vitro ADME, Rhesus macaque (Macaca mulatta); conditions: for AUC3h–15d / Cmax: Rh. macaque vaginal explants, 3 h exposure; for Cmax: monkey, vaginal tissue explants, read-out: Cmax
RT-SHIV [15] = assay: tissue or blood; assay type: cell-based; conditions: for p27 AUC3-15: Rhesus macaque vaginal explants
[16] = high concentration: TFV 70 µM, MVC […], or TFV 70 µM + MVC […]
[17] = low concentration: TFV 7 µM, MVC […], or TFV 7 µM + MVC […]
[18] = Human immunodeficiency virus 1, 360 h, day 15
[19] = Simian immunodeficiency virus, in Macaca mulatta, 360 h, NHP colorectal explants, day 15
[20] = Simian immunodeficiency virus, in Macaca mulatta, 360 h, NHP vaginal explants, day 15
[21] = Simian immunodeficiency virus, in Macaca mulatta, 360 h, NHP cervical explants, day 15
[22] = Comb. gel, High [ ]: TFV 70 µM + MVC […]
[23] = Comb. gel, Low [ ]: TFV 7 µM + MVC […]
[24] = Single gel, High [ ]: TFV 70 µM or MVC […]
[25] = Single gel, Low [ ]: TFV 7 µM or MVC […]

## C[C@H](Cn1cnc2c(N)ncnc21)OCP(=O)(O)O [TFV, Tenofovir]
HIV-1BaL [1]; [16]
  p24 AUC3-15: 1.13 ± 0.10 µgxd/ml
HIV-1BaL [1]; [17]
  p24 AUC3-15: 2.55 ± 1.47 µgxd/ml
HIV-1BaL [1]; [18]
  IC50: 41.4 ± 0.57 µM
SIVmac32H K65RM184V [2]; [16]
  p27 AUC3-15: 1.38 ± 0.27 µgxd/ml
SIVmac32H K65RM184V [2]; [17]
  p27 AUC3-15: 1.70 ± 0.32 µgxd/ml
SIVmac32H K65RM184V [2]; [19]
  IC50: 47.9 ± 24.9 µM
SIVmac32H [3]; [16]
  p27 AUC3-15: 1.27 ± 0.24 µgxd/ml
SIVmac32H [3]; [17]
  p27 AUC3-15: 1.44 ± 0.28 µgxd/ml
SIVmac32H [3]; [20]
  IC50: 56.1 ± 62.9 µM
SIVmac32H K65R
  IC50: 46.6 ± 12.6 µM
  p27 AUC3-15: 1.43 ± 0.31 µgxd/ml and 1.95 ± 0.54 µgxd/ml
RT-SHIV [4]; Macaca mulatta, 360 h, NHP colorectal explants, day 15
  IC50: 30 ± 13.2 µM
RT-SHIV [4]; [16]
  p27 AUC3-15: 1.45 ± 0.24 µgxd/ml
RT-SHIV [4]; [17]
  p27 AUC3-15: 4.27 ± 2.75 µgxd/ml
SIVmac32H [5]; [16]
  p27 AUC3-15: 1.25 ± 0.36 µgxd/ml
SIVmac32H [5]; [17]
  p27 AUC3-15: 1.46 ± 0.52 µgxd/ml
SIVmac32H [5]; [21]
  IC50: 52.6 ± 41.5 µM
[6]; NHP ecto-cervical explants, combination versus single drug
  AUC3h-15d fold increase on combining the two ARVs: 2.2 fold
[6]; [22]
  AUC3h–15d: 18.55 ng·days/mg
  Cmax: 2460 ng/g
[6]; [23]
  AUC3h–15d: 14.11 ng·days/mg
  Cmax: 1860 ng/g
[6]; [24]
  AUC3h–15d: 9.55 ng·days/mg
  Cmax: 1250 ng/g
[6]; [25]
  AUC3h–15d: 4.99 ng·days/mg
  Cmax: 660 ng/g
[7]; [22]
  AUC3h-15d: 30.61 ng·days/mg
  Cmax: 16600 ng/g
[7]; [23]
  AUC3h-15d: 4.409 ng·days/mg
  Cmax: 2380 ng/g
[7]; [24]
  AUC3h-15d: 25.40 ng·days/mg
  Cmax: 13600 ng/g
[7]; [25]
  AUC3h-15d: 4.05 ng·days/mg
  Cmax: 2030 ng/g
[7]; human ecto-cervical compared to colorectal explants
  average exposure (AUC3h-15d) fold change: 3.7 fold
[7]; human ecto-cervical explants
  AUC3h-15d fold increase, high versus low concentration gels: 6.6 fold
[7]; human ecto-cervical explants versus macaque tissue
  Cmax fold increase: 5.6 fold
HIV-1YU.2 M184V; [16]
  p24 AUC3-15: 0.52 ± 0.02 µgxd/ml
HIV-1YU.2 M184V; [17]
  p24 AUC3-15: 0.82 ± 0.05 µgxd/ml
HIV-1YU.2 M184V; [18]
  IC50: 37.9 ± 12.5 µM
HIV-1/SIV/SHIV isolates
  potency against the mutant isolates: reduced
HIV-1/SIV/SHIV isolates; colorectal tissue compared to female genital tract tissue, NHP and human explants
  median (IQR) fold decreased IC50 values for matched isolates: 1.8 (1.7–2.1) fold
HIV-1YU.2 K65R; [16]
  p24 AUC3-15: 0.41 ± 0.03 µgxd/ml
HIV-1YU.2 K65R; [17]
  p24 AUC3-15: 0.71 ± 0.06 µgxd/ml
HIV-1YU.2 K65R; [18]
  IC50: 62.4 ± 15.8 µM
SIVmac32H [8]; [16]
  p27 AUC3-15: 1.23 ± 0.14 µgxd/ml
SIVmac32H [8]; [17]
  p27 AUC3-15: 4.84 ± 1.77 µgxd/ml
SIVmac32H [8]; [19]
  IC50: 25.4 ± 5.35 µM
HIV-1BaL [9]; [16]
  p24 AUC3-15: 0.41 ± 0.17 µgxd/ml
HIV-1BaL [9]; [17]
  p24 AUC3-15: 2.57 ± 1.81 µgxd/ml
HIV-1BaL [9]; [18]
  IC50: 22.2 ± 1.39 µM
SIVmac32H K65RM184V [10]; [16]
  p27 AUC3-15: 1.40 ± 0.30 µgxd/ml
SIVmac32H K65RM184V [10]; [17]
  p27 AUC3-15: 1.65 ± 0.30 µgxd/ml
SIVmac32H K65RM184V [10]; [21]
  IC50: 81.3 ± 50.8 µM
[11]; NHP colorectal explants versus ecto-cervical
  exposure (AUC3h-15d) fold change: 2.5 fold
[11]; NHP colorectal explants versus vaginal tissues
  exposure (AUC3h-15d) fold change: 4.4 fold
[11]; [22]
  AUC3h–15d: 66.86 ng·days/mg
  Cmax: 44200 ng/g
[11]; [23]
  AUC3h–15d: 13.99 ng·days/mg
  Cmax: 9190 ng/g
[11]; [24]
  AUC3h–15d: 30.64 ng·days/mg
  Cmax: 20200 ng/g
[11]; [25]
  AUC3h–15d: 4.68 ng·days/mg
  Cmax: 2980 ng/g
SIVmac32H M184V
  IC50: 40.2 ± 30.1 µM
[12]; [22]
  AUC3h-15d: 6.37 ng·days/mg
  Cmax: 3670 ng/g
[12]; [23]
  AUC3h-15d: 1.99 ng·days/mg
  Cmax: 1170 ng/g
[12]; [24]
  AUC3h-15d: 6.62 ng·days/mg
  Cmax: 2920 ng/g
[12]; [25]
  AUC3h-15d: 2.47 ng·days/mg
  Cmax: 1320 ng/g
[12]; human colorectal tissue
  AUC3h-15d fold increase, high versus low concentration gels: 2.9 fold
HIV-1YU.2; [16]
  p24 AUC3-15: 1.83 ± 0.18 µgxd/ml
HIV-1YU.2; [17]
  p24 AUC3-15: 10.73 ± 5.56 µgxd/ml
HIV-1YU.2; [18]
  IC50: 28.9 ± 11.8 µM
HIV-1YU.2 K65RM184V; [16]
  p24 AUC3-15: 1.01 ± 0.11 µgxd/ml
HIV-1YU.2 K65RM184V; [17]
  p24 AUC3-15: 1.88 ± 0.07 µgxd/ml
HIV-1YU.2 K65RM184V; [18]
  IC50: 36.4 ± 3.83 µM
SIVmac32H K65RM184V [13]; [16]
  p27 AUC3-15: 1.37 ± 0.30 µgxd/ml
SIVmac32H K65RM184V [13]; [17]
  p27 AUC3-15: 1.61 ± 0.29 µgxd/ml
SIVmac32H K65RM184V [13]; [20]
  IC50: 77.1 ± 31.5 µM
[14]; [22]
  AUC3h–15d: 10.16 ng·days/mg
  Cmax: 1350 ng/g
[14]; [23]
  AUC3h–15d: 5.75 ng·days/mg
  Cmax: 770 ng/g
[14]; [24]
  AUC3h–15d: 10.25 ng·days/mg
  Cmax: 1370 ng/g
[14]; [25]
  AUC3h–15d: 4.05 ng·days/mg
  Cmax: 540 ng/g
[14]; macaque vaginal explants
  AUC3h-15d fold increase, high versus low concentration gels: 2.1 fold
RT-SHIV [15]; Macaca mulatta, 360 h, NHP vaginal explants, day 15
  IC50: 52.1 ± 27.3 µM
RT-SHIV [15]; [16]
  p27 AUC3-15: 1.28 ± 0.27 µgxd/ml
RT-SHIV [15]; [17]
  p27 AUC3-15: 1.53 ± 0.29 µgxd/ml
